# Reference: patent publication US9670162B2, “Mitochondrial aldehyde dehyrogenase-2 modulators and methods of use thereof” (The Board of Trustees of the Leland Stanford Junior …, priority 2013, dated 2017)
# Substitutions are numbered along the chain they refer to.
# Assays:
# HLM stability T1/2 = format: in vitro ADME; conditions: human, liver microsomes; read-out: HLM T1/2
# Protocol: (§1) In vitro ADMET of compounds of the present disclosure was carried out according to known methods in the art. Below are data for certain compounds of the present disclosure.
# human ALDH2 wild type = target: T1, human ALDH2 wild type (Homo sapiens, UniProt P05091); test: ALDH2 enzymatic assay (NADH at 340 nm), recombinant wild type enzyme; format: biochemical; parameters: key: −: no activation or inhibition; +: activation less than control 1; ++: activation similar to control 1, within 10%; +++: activation more than control 1 and less than control (compound 161); ++++: activation similar to compound 161, within 10%; conditions: activation relative to benchmarks control 1 and compound 161
# T1 construct: His-tag (pTrcHis vector) (N); made in house; host or cells: E. coli BL21
# T1 sequence (P05091 18-517): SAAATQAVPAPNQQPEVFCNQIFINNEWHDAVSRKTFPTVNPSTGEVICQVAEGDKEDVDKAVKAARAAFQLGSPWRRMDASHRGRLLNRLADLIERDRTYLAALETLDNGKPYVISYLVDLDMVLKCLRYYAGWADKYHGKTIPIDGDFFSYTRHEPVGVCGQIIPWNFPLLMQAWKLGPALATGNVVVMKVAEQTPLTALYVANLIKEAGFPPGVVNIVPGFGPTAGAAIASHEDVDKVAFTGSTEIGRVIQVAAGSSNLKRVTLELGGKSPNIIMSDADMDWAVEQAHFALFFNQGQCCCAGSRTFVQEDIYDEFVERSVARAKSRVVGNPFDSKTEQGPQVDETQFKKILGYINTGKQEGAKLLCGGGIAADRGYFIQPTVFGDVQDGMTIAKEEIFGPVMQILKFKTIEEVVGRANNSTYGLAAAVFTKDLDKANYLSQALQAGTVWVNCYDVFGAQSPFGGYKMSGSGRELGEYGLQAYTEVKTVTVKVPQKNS
# MLM stability T1/2 = format: in vitro ADME; conditions: mouse, liver microsomes
# Protocol: as §1
# [1] = target: T2, human ALDH2*2 recombinant mutant enzyme (E487K) (Homo sapiens, UniProt P05091, E504K); test: ALDH2 enzymatic assay (NADH at 340 nm), recombinant mutant enzyme; format: biochemical; parameters: key: −: no activation or inhibition; +: activation less than control 1; ++: activation similar to control 1, within 10%; +++: activation more than control 1 and less than control (compound 161); ++++: activation similar to compound 161, within 10%; conditions: activation relative to benchmarks control 1 and compound 161
# T2 construct: His-tag (pTrcHis vector) (N); made in house; host or cells: E. coli BL21
# T2 sequence (P05091 18-517 E504K): T1 sequence (P05091 18-517) with E487K
# Aqueous solubility = format: physicochemical
# Protocol: as §1
# RLM stability T1/2 = format: in vitro ADME; conditions: rat, liver microsomes
# Protocol: as §1
# NHPLM stability T1/2 = format: in vitro ADME; conditions: monkey, liver microsomes
# Protocol: as §1
# LogD (pH 7.4) = format: physicochemical
# Protocol: as §1
# CYP3A4 = CYP3A4 (Homo sapiens, UniProt P08684); test: Cyp inhibition 3A4; format: in vitro ADME; conditions: 10 μM
# Protocol: as §1
# CYP2C19 = CYP2C19 (Homo sapiens, UniProt P33261); test: Cyp inhibition 2C19; format: in vitro ADME; conditions: 10 μM
# Protocol: as §1
# CYP2D6 = CYP2D6 (Homo sapiens, UniProt P10635); test: Cyp inhibition 2D6; format: in vitro ADME
# Protocol: as §1
# Plasma stability, human = format: in vitro ADME; conditions: plasma
# Protocol: as §1
# Caco-2 permeability = format: in vitro ADME; conditions: human; for Papp A→B: read-out: Caco-2 Papp A-B; for efflux ratio: read-out: Caco-2 Papp B-A/A-B
# Protocol: as §1
# Plasma stability, rat = format: in vitro ADME
# Protocol: as §1
# CYP1A2 = target: T3, CYP1A2 (Homo sapiens, UniProt P05177); test: Cyp inhibition 1A2; format: in vitro ADME; conditions: 10 μM
# T3 sequence (P05177 1-516): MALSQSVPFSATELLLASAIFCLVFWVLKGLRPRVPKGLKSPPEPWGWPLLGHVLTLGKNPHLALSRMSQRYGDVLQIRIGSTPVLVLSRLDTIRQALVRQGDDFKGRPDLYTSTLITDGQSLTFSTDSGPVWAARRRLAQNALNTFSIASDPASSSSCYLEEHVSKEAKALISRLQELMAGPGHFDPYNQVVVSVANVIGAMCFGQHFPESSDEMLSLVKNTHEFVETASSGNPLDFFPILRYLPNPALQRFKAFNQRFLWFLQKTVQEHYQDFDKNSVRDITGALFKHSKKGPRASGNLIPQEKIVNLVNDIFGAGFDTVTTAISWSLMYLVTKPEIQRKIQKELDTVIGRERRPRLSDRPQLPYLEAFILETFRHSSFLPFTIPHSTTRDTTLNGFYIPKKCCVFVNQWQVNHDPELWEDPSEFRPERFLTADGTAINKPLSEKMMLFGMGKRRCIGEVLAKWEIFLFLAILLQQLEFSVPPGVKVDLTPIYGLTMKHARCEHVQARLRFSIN
# Protocol: as §1
# [2] = Plasma protein binding (PPB), human; format: in vitro ADME
# Protocol: as §1
# CYP2C9 = CYP2C9 (Homo sapiens, UniProt P11712); test: Cyp inhibition 2C9; format: in vitro ADME
# Protocol: as §1
# [3] = Plasma protein binding (PPB), rat; format: in vitro ADME
# Protocol: as §1
# Sequence of CYP2D6 (P10635 whole entry): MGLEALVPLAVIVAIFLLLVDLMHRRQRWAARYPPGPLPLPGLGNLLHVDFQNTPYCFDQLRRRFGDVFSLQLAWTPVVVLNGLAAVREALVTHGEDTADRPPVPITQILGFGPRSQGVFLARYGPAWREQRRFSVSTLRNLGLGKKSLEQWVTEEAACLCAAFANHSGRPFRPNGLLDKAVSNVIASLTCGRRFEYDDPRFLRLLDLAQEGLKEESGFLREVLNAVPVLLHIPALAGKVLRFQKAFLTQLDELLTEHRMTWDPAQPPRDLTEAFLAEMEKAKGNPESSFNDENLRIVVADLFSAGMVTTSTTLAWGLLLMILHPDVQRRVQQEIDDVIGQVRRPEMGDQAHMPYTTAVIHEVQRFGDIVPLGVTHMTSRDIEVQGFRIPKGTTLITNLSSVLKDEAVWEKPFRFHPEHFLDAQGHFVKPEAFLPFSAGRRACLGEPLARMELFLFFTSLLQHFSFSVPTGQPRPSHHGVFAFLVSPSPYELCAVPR
# Sequence of CYP2C19 (P33261 whole entry): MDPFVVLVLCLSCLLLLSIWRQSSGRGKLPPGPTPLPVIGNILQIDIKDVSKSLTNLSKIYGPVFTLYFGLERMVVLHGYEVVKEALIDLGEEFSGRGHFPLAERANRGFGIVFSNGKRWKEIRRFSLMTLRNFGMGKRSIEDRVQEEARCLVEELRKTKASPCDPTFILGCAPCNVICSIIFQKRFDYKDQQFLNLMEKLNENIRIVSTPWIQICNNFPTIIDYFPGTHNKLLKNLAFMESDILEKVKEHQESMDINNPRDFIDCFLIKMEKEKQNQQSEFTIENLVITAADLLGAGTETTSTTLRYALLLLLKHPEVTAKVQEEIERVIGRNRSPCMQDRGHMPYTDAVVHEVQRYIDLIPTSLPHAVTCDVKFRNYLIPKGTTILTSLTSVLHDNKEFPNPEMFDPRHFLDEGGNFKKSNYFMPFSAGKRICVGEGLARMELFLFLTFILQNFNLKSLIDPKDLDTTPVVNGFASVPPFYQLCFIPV
# Sequence of CYP2C9 (P11712 whole entry): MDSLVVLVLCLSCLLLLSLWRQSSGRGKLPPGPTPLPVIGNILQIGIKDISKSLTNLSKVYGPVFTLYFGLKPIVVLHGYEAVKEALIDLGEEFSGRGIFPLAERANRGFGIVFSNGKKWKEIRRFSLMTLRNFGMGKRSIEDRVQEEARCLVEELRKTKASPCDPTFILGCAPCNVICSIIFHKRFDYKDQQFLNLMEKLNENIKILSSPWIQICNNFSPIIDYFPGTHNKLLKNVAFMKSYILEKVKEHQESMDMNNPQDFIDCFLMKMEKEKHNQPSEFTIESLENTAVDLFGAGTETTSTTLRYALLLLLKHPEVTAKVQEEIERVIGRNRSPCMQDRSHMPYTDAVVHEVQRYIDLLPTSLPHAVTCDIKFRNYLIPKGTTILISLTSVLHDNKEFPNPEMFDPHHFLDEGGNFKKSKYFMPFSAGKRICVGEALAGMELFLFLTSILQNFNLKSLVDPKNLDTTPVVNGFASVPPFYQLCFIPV
# Sequence of CYP3A4 (P08684 whole entry): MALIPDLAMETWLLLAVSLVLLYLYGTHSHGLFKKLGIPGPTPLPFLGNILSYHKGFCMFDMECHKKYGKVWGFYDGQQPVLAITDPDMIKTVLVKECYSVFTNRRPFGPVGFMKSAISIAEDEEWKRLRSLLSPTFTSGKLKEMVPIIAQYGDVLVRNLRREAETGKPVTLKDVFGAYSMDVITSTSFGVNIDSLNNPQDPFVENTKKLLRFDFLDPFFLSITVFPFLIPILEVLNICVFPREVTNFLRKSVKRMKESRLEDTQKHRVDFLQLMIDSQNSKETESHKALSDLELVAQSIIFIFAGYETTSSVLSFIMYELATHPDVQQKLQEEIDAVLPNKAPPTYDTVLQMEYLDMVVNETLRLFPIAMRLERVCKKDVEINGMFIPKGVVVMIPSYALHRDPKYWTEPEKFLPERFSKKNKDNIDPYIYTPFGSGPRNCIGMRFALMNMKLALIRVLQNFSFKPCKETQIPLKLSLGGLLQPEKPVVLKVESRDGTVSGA
half-life (HLM stability T1/2) [min],ALDH2 (wild-type) (human ALDH2 wild type),half-life (MLM stability T1/2) [min],ALDH2 (mutant) [1],Aqu. Solu. (Aqueous solubility) [µg/mL],half-life (RLM stability T1/2) [min],half-life (NHPLM stability T1/2) [min],logD (LogD (pH 7.4)),inhibition at 10 µM (CYP3A4) [%],inhibition at 10 µM (CYP2C19) [%],inhibition at 10 µM (CYP2D6) [%],"Plasma stability Human (Plasma stability, human) [%]",Papp A→B (Caco-2 permeability) [×10⁻⁶ cm/s],Papp B→A (Caco-2 permeability) [×10⁻⁶ cm/s],efflux ratio (Caco-2 permeability),"Plasma stability Rat (Plasma stability, rat) [%]",inhibition at 10 µM (CYP1A2) [%],fraction unbound [2],inhibition at 10 µM (CYP2C9) [%],fraction unbound [3],Compound
2.67,++++,0.753,++++,5,0.753,0.685,3.8,,,,,,,,,,,,,COc1ccc(CNC(=O)c2c(Cl)cccc2OCC2CC2)cc1F [Compound 135]
3.85,+,100,++,272,82.5,51.3,1.6,7.7,3.5,0.81,100,1.22,13.1,10.7,100,1.1,0.098,-12,0.367,COc1ccc(CNC(=O)c2c(Cl)cc[n+]([O-])c2OCC2CC2)cc1F [Compound 169]
,+,,+,,,,,,,,,,,,,,,,,COc1ccc(CNS(=O)(=O)c2c(Cl)cccc2OCC2CC2)cc1F [Compound 164]

# More lines, now with the values behind:
Compound,half-life (HLM stability T1/2) [min],ALDH2 (wild-type) (human ALDH2 wild type),half-life (MLM stability T1/2) [min],ALDH2 (mutant) [1],Aqu. Solu. (Aqueous solubility) [µg/mL],half-life (RLM stability T1/2) [min],half-life (NHPLM stability T1/2) [min],logD (LogD (pH 7.4)),inhibition at 10 µM (CYP3A4) [%],inhibition at 10 µM (CYP2C19) [%],inhibition at 10 µM (CYP2D6) [%],"Plasma stability Human (Plasma stability, human) [%]",Papp A→B (Caco-2 permeability) [×10⁻⁶ cm/s],Papp B→A (Caco-2 permeability) [×10⁻⁶ cm/s],efflux ratio (Caco-2 permeability),"Plasma stability Rat (Plasma stability, rat) [%]",inhibition at 10 µM (CYP1A2) [%],fraction unbound [2],inhibition at 10 µM (CYP2C9) [%],fraction unbound [3]
"O=C(NCc1ccc2c(c1)OCO2)c1c(Cl)cccc1Cl [Control 1, reference compound]",21.2,++,0.753,++,12,1.33,1.57,3.4,83.5,72.4,9.1,100,16.6,11.7,0.7,100,31.9,0.025,16.3,0.037
COc1ccc(CNC(=O)c2c(Cl)cccc2Br)cc1 [Compound 108],,++,,+,,,,,,,,,,,,,,,,
COc1ccc(CNC(=O)c2c(C)cccc2C)cc1F [Compound 119],,−,,+,,,,,,,,,,,,,,,,
